From PMC8286840, “Identifying SARS-CoV-2 antiviral compounds by screening for small molecule inhibitors of Nsp3 papain-like protease” (Biochemical Journal, 2021)
Structures can show the parent of a compound that is named as a salt. Where two headings read alike, the source gives them in different places. Where a SMILES comes first, the peptide text is derived from it.

How the values were obtained:
[1] = target: T1, SARS-CoV-2 PLpro (nsp3 1564–1878) (Severe acute respiratory syndrome coronavirus 2, UniProt P0DTD1); experiment: biochemical; design: FRET-quenched peptide (Pro3) cleavage by PLpro, 10 min pre-incubation, slope over 20 min, normalised to no-compound control; conditions: low concentration screen, read-out: % of control remaining
[2] = target: T1, SARS-CoV-2 PLpro (nsp3 1564–1878); experiment: biochemical; design: FRET-quenched peptide (Pro3) cleavage by PLpro, 10 min pre-incubation, slope over 20 min, normalised to no-compound control; conditions: high concentration screen, read-out: % of control remaining

For `CCc1ccc(NC(=O)Nc2c[nH]c3ccccc23)cc1` [H-151], the remaining activity at 1.25 µM ([1]; Well no.=8555) was 102% and the remaining activity at 3.75 µM ([2]; Well no.=8555) was 103%.

`NCCCC[C@H](NC(=O)[C@H](Cc1c[nH]c2ccccc12)NC(=O)[C@@H](N)CCCCN)C(=O)O` [H-Lys-Trp-Lys-OH] (H-Lys-Trp-Lys-OH) was tested, and the remaining activity at 1.25 µM ([1]; Well no.=8180) was 103% and the remaining activity at 3.75 µM ([2]; Well no.=8180) was 103%.

`N[C@@H](Cc1ccccc1)C(=O)N[C@@H](Cc1ccccc1)C(=O)O` [H-Phe-Phe-OH] (H-Phe-Phe-OH) showed a remaining activity at 1.25 µM ([1]; Well no.=8742) of 96.6% and a remaining activity at 3.75 µM ([2]; Well no.=8742) of 104%.

Compound `N[C@@H](Cc1ccc(O)c(I)c1)C(=O)O` [H-Tyr(3-I)-OH] has a remaining activity at 1.25 µM ([1]; Well no.=7019) of 99.7% and a remaining activity at 3.75 µM ([2]; Well no.=7019) of 99.6%.

For `CC(C)[C@H](N)C(=O)N1CCC[C@H]1C(=O)N1CCC[C@H]1C(=O)O` [H-Val-Pro-Pro-OH (TFA)], the remaining activity at 1.25 µM ([1]; Well no.=7546) was 100% and the remaining activity at 3.75 µM ([2]; Well no.=7546) was 100%.

Compound `CCOC(=O)C1=C(N)Oc2ccc(Br)cc2[C@H]1[C@H](C#N)C(=O)OCC` [HA14-1] has a remaining activity at 1.25 µM ([1]; Well no.=5007) of 105%, a remaining activity at 1.25 µM ([1]; Well no.=6296) of 101% and a remaining activity at 3.75 µM ([2]; Well no.=5007) of 101%. It also gave a remaining activity at 3.75 µM ([2]; Well no.=6296) of 102%.

`O=S(=O)(c1cccc2cnccc12)N1CCCNCC1` [HA1077] was tested, and the remaining activity at 1.25 µM ([1]; Well no.=1669) was 106% and the remaining activity at 3.75 µM ([2]; Well no.=1669) was 106%.

In the case of `NC(N)=NCCNS(=O)(=O)c1cccc2cnccc12` [HA 1004, Dihydrochloride], the remaining activity at 1.25 µM ([1]; Well no.=2433) is reported as 111% and the remaining activity at 3.75 µM ([2]; Well no.=2433) is reported as 108%.

`O=S(=O)(c1cccc2cnccc12)N1CCCNCC1` [HA 1077, Dihydrochloride Fasudil] was tested, and the remaining activity at 1.25 µM ([1]; Well no.=2646) was 94.1% and the remaining activity at 3.75 µM ([2]; Well no.=2646) was 100%.

For `O=c1[nH]ccc2c(S(=O)(=O)N3CCCNCC3)cccc12` [HA 1100 hydrochloride - 1-[(1,2-Dihydro-1-oxo-5-isoquinolinyl)sulfonyl]hexahydro-1H-1,4-diazepine hydrochloride], the remaining activity at 1.25 µM ([1]; Well no.=2526) was 95.2% and the remaining activity at 3.75 µM ([2]; Well no.=2526) was 97.2%.

`O=S(=O)(c1cccc2cnccc12)N1CCNCC1` [HA-100] gave a remaining activity at 1.25 µM ([1]; Well no.=478) of 102% and a remaining activity at 3.75 µM ([2]; Well no.=478) of 101%.

With `NC(N)=NCCNS(=O)(=O)c1cccc2cnccc12` [HA-1004 hydrochloride] the remaining activity at 1.25 µM ([1]; Well no.=522) was 101% and the remaining activity at 3.75 µM ([2]; Well no.=522) was 99.3%.

With `CC(C)c1ccc(NC(=O)Cn2cnc3c2c(=O)n(C)c(=O)n3C)cc1` [HC-030031] the remaining activity at 1.25 µM ([1]; Well no.=5225) was 94% and the remaining activity at 3.75 µM ([2]; Well no.=5225) was 89.7%.

With `Cc1c(C(=O)Nc2cccc(C(F)(F)F)c2)cc(-c2ccccc2)n1CCCN1CCOCC1` [HC-067047] the remaining activity at 1.25 µM ([1]; Well no.=5409) was 102% and the remaining activity at 3.75 µM ([2]; Well no.=5409) was 103%.

`O=C(CCc1ccc(CN[C@H](C(=O)OC2CCCC2)C2CCCCC2)cn1)NO` [HDAC-IN-3] showed a remaining activity at 1.25 µM ([1]; Well no.=8172) of 105% and a remaining activity at 3.75 µM ([2]; Well no.=8172) of 104%.

`C[C@@H]1CN(C(=O)Nc2ccc(-c3nc(N4CCOCC4)c4cnn(CCCCCCC(=O)NO)c4n3)cc2)CCO1` [HDACs/mTOR Inhibitor 1] gave a remaining activity at 1.25 µM ([1]; Well no.=6964) of 96.4% and a remaining activity at 3.75 µM ([2]; Well no.=6964) of 93.8%.

`CCCCC#Cc1nc(N)c2ncn([C@@H]3O[C@H](C(=O)NCC)[C@@H](O)[C@H]3O)c2n1` [HE-NECA] was tested, and the remaining activity at 1.25 µM ([1]; Well no.=756) was 97% and the remaining activity at 3.75 µM ([2]; Well no.=756) was 98.5%.

`CCOc1ccc(C(Nc2ccccn2)c2ccc3ccc(C)nc3c2O)cc1C` (centres unmarked) [HLM006474] gave a remaining activity at 1.25 µM ([1]; Well no.=5926) of 104% and a remaining activity at 3.75 µM ([2]; Well no.=5926) of 100%.

Compound `CC1(C)C=C(CN2C/C(=C\c3ccc(F)cc3)C(=O)/C(=C/c3ccc(F)cc3)C2)C(C)(C)N1O` [HO-3867] has a remaining activity at 1.25 µM ([1]; Well no.=8518) of 101% and a remaining activity at 3.75 µM ([2]; Well no.=8518) of 102%.

Work on `CC(C)(C)NCC(O)c1ccc(O)cc1Cl` (centres unmarked) [HOKU-81] yielded a remaining activity at 1.25 µM ([1]; Well no.=8051) of 93% and a remaining activity at 3.75 µM ([2]; Well no.=8051) of 96.3%.

`Cc1ccc(Oc2ccnc3cc(-c4cnn(C5CCNCC5)c4)ccc23)cc1` [HS-1371] showed a remaining activity at 1.25 µM ([1]; Well no.=6820) of 91.1% and a remaining activity at 3.75 µM ([2]; Well no.=6820) of 85.5%.

With `COc1cccc(-c2cc(F)ccc2C2Cc3nc(N)nc(C)c3C(=O)N2)n1` (centres unmarked) [HSP990 (NVP-HSP990)] the remaining activity at 1.25 µM ([1]; Well no.=8934) was 93.5% and the remaining activity at 3.75 µM ([2]; Well no.=8934) was 100%.

For `CCC(=O)O[C@]1(C(=O)CCl)[C@@H](C)C[C@H]2[C@@H]3C[C@H](F)C4=CC(=O)C=C[C@]4(C)[C@@]3(F)[C@@H](O)C[C@@]21C` [Halobetasol Propionate], the remaining activity at 1.25 µM ([1]; Well no.=8250) was 94.9% and the remaining activity at 3.75 µM ([2]; Well no.=8250) was 91.1%.

Compound `COc1ccc2c3c([nH]c2c1)C(C)=NCC3` [Harmaline] has a remaining activity at 1.25 µM ([1]; Well no.=3286) of 99.5% and a remaining activity at 3.75 µM ([2]; Well no.=3286) of 99.1%.

`Cc1nccc2c1[nH]c1ccccc12` [Harmane] gave a remaining activity at 1.25 µM ([1]; Well no.=612) of 98.8%, a remaining activity at 1.25 µM ([1]; Well no.=3593) of 101% and a remaining activity at 3.75 µM ([2]; Well no.=612) of 92%. It also gave a remaining activity at 3.75 µM ([2]; Well no.=3593) of 102%.

With `COc1ccc2c(c1)[nH]c1c(C)nccc12` [Harmine] the remaining activity at 1.25 µM ([1]; Well no.=2092) was 90.6%, the remaining activity at 1.25 µM ([1]; Well no.=3681) was 97.5% and the remaining activity at 1.25 µM ([1]; Well no.=8343) was 96.2%. The remaining activity at 3.75 µM ([2]; Well no.=2092) was 88.2%, the remaining activity at 3.75 µM ([2]; Well no.=3681) was 97.5% and the remaining activity at 3.75 µM ([2]; Well no.=8343) was 83.5%.

For `COC(=O)C[C@](O)(CCC(C)(C)O)C(=O)O[C@@H]1C(OC)=C[C@]23CCCN2CCc2cc4c(cc2[C@H]13)OCO4` [Harringtonine], the remaining activity at 1.25 µM ([1]; Well no.=3615) was 105% and the remaining activity at 3.75 µM ([2]; Well no.=3615) was 103%.

`CO[C@H](C)[C@](O)(C(=O)OCC1=CCN2CC[C@H](O)[C@@H]12)C(C)C` [Heliotrine] showed a remaining activity at 1.25 µM ([1]; Well no.=3149) of 101% and a remaining activity at 3.75 µM ([2]; Well no.=3149) of 104%.

For `C[N+]1(C)CCO[C@@](O)(c2ccc(-c3ccc([C@@]4(O)C[N+](C)(C)CCO4)cc3)cc2)C1` [Hemicholinium-3], the remaining activity at 1.25 µM ([1]; Well no.=474) was 97.1% and the remaining activity at 3.75 µM ([2]; Well no.=474) was 95.2%.

`CCCCCCCCCCCCCCCCCCCCC(=O)O` [Heneicosanoic acid] showed a remaining activity at 1.25 µM ([1]; Well no.=4450) of 101% and a remaining activity at 3.75 µM ([2]; Well no.=4450) of 101%.

Compound `CCCCC/C=C\C[C@@H]1O[C@H]1/C=C/C(O)C/C=C\CCCC(=O)O` (some centres unmarked) [Hepoxilin A3] has a remaining activity at 1.25 µM ([1]; Well no.=4339) of 107% and a remaining activity at 3.75 µM ([2]; Well no.=4339) of 106%.

Work on `CCCCC/C=C\C[C@@H]1O[C@H]1C(O)/C=C\C/C=C\CCCC(=O)O` (some centres unmarked) [Hepoxilin B3] yielded a remaining activity at 1.25 µM ([1]; Well no.=4341) of 97.9% and a remaining activity at 3.75 µM ([2]; Well no.=4341) of 96.6%.

Work on `CCCCCCCCCCCCCCCCC(=O)O` [Heptadecanoic acid] yielded a remaining activity at 1.25 µM ([1]; Well no.=4308) of 106% and a remaining activity at 3.75 µM ([2]; Well no.=4308) of 101%.
